According to US6485742B1, “Process for producing coated preparation and its use” (BASF Aktiengesellschaft, priority 1999, dated 2002):

Assay: Change in appearance (browning) of filled gelatin capsules on storage
Type: physicochemical
Settings: 0.4 g in gelatin capsules, sealed glass bottle, 40° C. for 30 days
Protocol: Each (0.4 g) of calcium L-ascorbate and the coated calcium L-ascorbate (70% L-ascorbate content) produced in Example 4 was filled in gelatin capsules (manufactured by Warner-Lambert Company, body volume 0.68 ml) and the capsules were placed in a transparent glass bottle. The bottle was sealed and stored in an incubator at 40° C. for 30 days to observe the change in appearances.

## calcium L-ascorbate
  Browning of filled gelatin capsules (change in appearance): severe browning
